Assay results published in patent publication US9233940B2, “Cyclic peptidomimetic compounds as immunomodulators” (Aurigene Discovery Technologies Limited, priority 2014, dated 2016).

Each molecule was assayed against T1, recombinant mouse PD-L1 (Mus musculus, UniProt Q9EP73) (assay: Rescue of mouse splenocyte proliferation in the presence of recombinant PD-L1 (CFSE proliferation assay)). Conditions: 72 h, 100 nM compound; CFSE-labelled mouse splenocytes + anti-CD3/CD28 + PD-L1, 72 h; normalised to stimulated splenocytes as 100%; read-out: Percent rescue of splenocyte proliferation @ 100 nM compound concentration.
T1 construct: purchased R&D Systems 1019-B7-100
Format: cell-based
Protocol: Rescue of Mouse Splenocyte Proliferation in the Presence of Recombinant PD-L1
Recombinant mouse PD-L1 (rm-PDL-1, cat no: 1019-B7-100; R&D Systems) were used as the source of PD-L1.
Mouse splenocytes harvested from 6-8 weeks old C57 BL6 mice; RPMI 1640 (GIBCO, Cat #11875); DMEM with high glucose (GIBCO, Cat # D6429); Fetal Bovine Serum [Hyclone, Cat # SH30071.03]; Penicillin (10000 unit/ml)-Streptomycin(10,000 μg/ml) Liquid (GIBCO, Cat #15140-122); MEM Sodium Pyruvate solution 100 mM (100×), Liquid (GIBCO, Cat #11360); Nonessential amino acid (GIBCO, Cat #11140); L-Glutamine (GIBCO, Cat #25030); Anti-CD3 antibody (eBiosciences-16-0032); Anti-CD28 antibody (eBiosciences-16-0281); ACK lysis buffer (1 mL) (GIBCO, Cat #-A10492); Histopaque (density-1.083 gm/mL) (SIGMA 10831); Trypan blue solution (SIGMA-T8154); 2 mL Norm Ject Luer Lock syringe—(Sigma 2014-12); 40 μm nylon cell strainer (BD FALCON 35230); Hemacytometer (Bright line-SIGMA Z359629); FACS Buffer (PBS/0.1% BSA): Phosphate Buffered Saline (PBS) pH 7.2 (HiMedia TS1006) with 0.1% Bovine Serum Albumin (BSA) (SIGMA A7050) and sodium azide (SIGMA 08591); 5 mM stock solution of CFSE: CFSE stock solution was prepared by diluting lyophilized CFSE with 180 μL of Dimethyl sulfoxide (DMSO C2H6SO, SIGMA-D-5879) and aliquoted in to tubes for further use. Working concentrations were titrated from 10 μm to 1 μm. (eBioscience-650850-85); 0.05% Trypsin and 0.02% EDTA (SIGMA 59417C); 96-well format ELISA plates (Corning CLS3390); BD FACS caliber (E6016); Recombinant mouse B7-H1/PDL1 Fc Chimera, (rm-PD-L1 cat no: 1019-B7-100).
Splenocytes harvested in a 50 mL falcon tube by mashing mouse spleen in a 40 μm cell strainer were further treated with 1 ml ACK lysis buffer for 5 mins at room temperature. After washing with 9 mL of RPMI complete media, cells were re-suspended in 3 ml of 1×PBS in a 15 mL tube. 3 mL of Histopaque was added carefully to the bottom of the tube without disturbing overlaying splenocyte suspension. After centrifuging at 800×g for 20 min. at room temperature, the opaque layer of splenocytes was collected carefully without disturbing/mixing the layers. Splenocytes were washed twice with cold 1×PBS followed by total cell counting using Trypan Blue exclusion method and used further for cell based assays.
Splenocytes were cultured in RPMI complete media (RPMI+10% fetal bovine serum+1 mM sodium pyruvate+10,000 units/mL penicillin and 10,000 μg/mL streptomycin) and maintained in a CO2 incubator with 5% CO2 at 37° C.
CFSE is a dye that passively diffuses into cells and binds to intracellular proteins. 1×10^6 cells/ml of harvested splenocytes were treated with 5 μm of CFSE in pre-warmed 1×PBS/0.1% BSA solution for 10 mins at 37° C. Excess CFSE was quenched using 5 volumes of ice-cold culture media to the cells and incubated on ice for 5 min. CFSE labelled splenocytes were further given three washes with ice cold complete RPMI media. CFSE labelled 1×10^5 splenocytes added to wells containing either MDA-MB231 cells (1×10^5 cells cultured in high glucose DMEM medium) or recombinant human PDL-1 (100 ng/mL) and test compounds. Splenocytes were stimulated with anti-mouse CD3 and anti-mouse CD28 antibody (1 μg/mL each), and the culture was further incubated for 72 h at 37° C. with 5% CO2. Cells were harvested and washed thrice with ice cold FACS buffer and % proliferation was analysed by flow cytometry with 488 nm excitation and 521 nm emission filters.
Percent splenocyte proliferation was analysed using cell quest FACS program and percent rescue of splenocyte proliferation by compound was estimated after deduction of % background proliferation value and normalising to % stimulated splenocyte proliferation (positive control) as 100%.
Background proliferation: Splenocytes+anti-CD3/CD28+PD-L1
Stimulated splenocytes: Splenocytes+anti-CD3/CD28 stimulation
Compound proliferation: Splenocytes+anti-CD3/CD28+PD-L1+Compound […]

T1 sequence (Q9EP73 with tags, fused parts or gaps limits assumed): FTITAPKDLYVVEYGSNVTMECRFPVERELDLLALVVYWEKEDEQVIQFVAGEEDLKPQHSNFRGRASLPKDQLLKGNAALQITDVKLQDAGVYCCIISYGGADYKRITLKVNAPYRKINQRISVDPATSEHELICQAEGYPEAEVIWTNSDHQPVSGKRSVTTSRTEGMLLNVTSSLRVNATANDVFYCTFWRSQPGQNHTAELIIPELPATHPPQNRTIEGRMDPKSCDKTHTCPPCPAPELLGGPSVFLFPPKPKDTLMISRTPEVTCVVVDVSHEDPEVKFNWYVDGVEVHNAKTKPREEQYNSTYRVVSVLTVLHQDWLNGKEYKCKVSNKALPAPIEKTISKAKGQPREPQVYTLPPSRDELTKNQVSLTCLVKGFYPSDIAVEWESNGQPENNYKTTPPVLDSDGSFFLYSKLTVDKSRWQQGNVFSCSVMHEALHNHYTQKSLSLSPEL

activity at 0.1 µM [%] | Structure (SMILES)
89 | CC(O)[C@@H]1NC(=O)N[C@H](CC(N)=O)C(=O)NNC(=O)[C@@H](C(C)O)NC(=O)COCCOCCNC1=O (stereo partly drawn) [Compound 10]
49 | CC(O)[C@H]1NC(=O)CCCCCCNC(=O)[C@@H](CO)NC(=O)N[C@H](CC(N)=O)C(=O)NNC1=O (stereo partly drawn) [Compound 4]
94 | CC(O)[C@H]1NC(=O)COCCOCCNC(=O)[C@@H](CO)NC(=O)N[C@H](CC(N)=O)C(=O)NNC1=O (stereo partly drawn) [Compound 2]
53 | CCC(C)[C@@H]1NC(=O)N[C@@H](CC(N)=O)C(=O)NNC(=O)[C@H](CO)NC(=O)COCCOCCNC1=O (stereo partly drawn) [Compound 5]
68 | NC(=O)C[C@@H]1NC(=O)N[C@@H](CC(=O)O)C(=O)NCCOCCOCC(=O)N[C@@H](CO)C(=O)NNC1=O [Compound 8]
95 | CC(O)[C@@H]1NC(=O)N[C@@H](CC(N)=O)C(=O)NNC(=O)[C@H](CO)NC(=O)COCCOCCNC1=O (stereo partly drawn) [Compound 1]
73 | NC(=O)C[C@@H]1NC(=O)N[C@H](CO)C(=O)NCCOCCOCC(=O)N[C@@H](CO)C(=O)NNC1=O [Compound 9]
58 | CC(O)[C@H]1NC(=O)COCCOCCNC(=O)[C@@H](CO)NC(=O)N[C@H](CC(N)=O)C(=O)N(C)NC1=O (stereo partly drawn) [Compound 3]

Same assay, conditions: CFSE-labelled mouse splenocytes + anti-CD3/CD28 + PD-L1, 72 h, normalised to stimulated splenocytes as 100%

Percent rescue of splenocyte proliferation @ 100 nM compound concentration | Structure (SMILES)
91 | NC(=O)C[C@@H]1NC(=O)N[C@H](CO)C(=O)NCCOCCOCC(=O)N[C@@H](CO)C(=O)NNC1=O [Compound 12]
